Assay [1] has as its system phospho-carboxyl terminal domain (Ser2) in HCT116 cells. In words: p-CTD (S2) cell based Acumen assay. The settings on record: Homo sapiens, HCT-116, 4 hours, read-out: relative IC50 for phosphoCTD (S2). Here is the method:
HCT116 cells (ATCC CCL-247) are cultured in McCoy's 5A Medium Modified media supplemented with 10% FBS, 1% NaPyr and 1% Pen/Strep and plated (prior to becoming 70% confluent) in 96-well flat-bottom plates at a density of 5,000 cells per well in 100 μL volume. The cells are then incubated overnight in a cell culture incubator (5% CO2, 95% Relative Humidity (RH) and 37° C.) and allowed to attach to the plate. The following morning the cells are dosed with compounds. Compound inhibitors are first solubilized at 60 μM in culture medium containing 0.6% DMSO. Subsequently compound serial dilutions (1:3) are prepared over a […] to […] range. […]
The following day cells are washed three times with PBS (100 μL/well) and incubated with 50 μL/well of secondary antibody (1:2000 dilution, Goat anti-rabbit IgM ALEXA FLUOR™ 488) in PBS for 1 hour at RT. […] Plates are analyzed on Acumen on FL2 (mean intensity), and FL3 (total intensity). Fluorescence plates are scanned with ACUMEN EXPLORER™ [Laser-scanning fluorescence microplate cytometer manufactured by TTP LABTECH LTD] to measure anti-phospho-carboxyl terminal domain at Serine 2 (pCTD). […]
The IC50 is determined by curve fitting to a four parameter logistic for each output using GENE DATA™.

In the next assay the test system is NCI-H460. In words: Cell Proliferation Assay (CELL TITER GLO). The format is cell-based. The settings on record: Homo sapiens, 168 h; NCI-H460, Lung Cancer, seven days. The procedure:
(§1) Cell lines are plated at the density 5000 cells per well in 100 μL per well growth medium into a white 96-well cell culture plate. See Table 2 for cell line and culture medium information. Plates are incubated at 37° C. and 5% CO2. The following day, a serial dilution of the test compound is prepared by diluting the compound 1:3 in DMSO for 10 points. The DMSO plate is 1000× the final concentration. In addition to the CDK7 inhibitor, a DMSO alone column is included as a maximum growth control and 10 μM staurosporine final column is included as a maximum growth inhibition control. A 10× dilution plate is then prepared by adding 2 μL per well from the 1000×DMSO plate to 198 μL per well of OMEM (Life Technologies, Carlsbad, Calif., cat #31985-070). Cells are treated with indicated compound by adding 11 μL per well from the 10×OMEM plate to the cell plate containing 100 μL per well growth medium for a 1× final concentration. Plates are placed back into the incubator at 37° C. and 5% CO2. Seven days after compound addition, plates are removed from the incubator and allowed to equilibrate to RT. CELL TITER GLO® reagent is thawed at room temperature and then prepare by mixing one vial of assay buffer with one vial of substrate and swirl gently to mix. CELL TITER GLO® reagent is then added to the cell plate, 100 μL per well, and place on a Titer Plate Shaker at speed setting 2 for 15 minutes at room temperature. After 15 minute incubation on shaker, luminescence is read, 1 second per well, using a Wallac VICTOR2™. Nonlinear regression and sigmoidal dose-response curves are used to calculate the half maximal inhibitory concentration (IC50) with Graphpad Prism 6 software.

A further assay relates to SNU-16. Description: Cell Proliferation Assay (CELL TITER GLO). The class given is cell-based. The settings on record: Homo sapiens, 168 h; SNU-16, Gastric Cancer, seven days. The procedure: as §1
In another assay the test system is A2780. Description: Cell Proliferation Assay (CELL TITER GLO). The format is cell-based. The following applies: Homo sapiens, 168 h; A2780, Ovarian Cancer, seven days. The procedure:
as §1
In general terms: ATP-based viability assays read luminescence as a measure of living cells.

The test system of the next assay is HCT116. In words: Cell Proliferation Assay (CELL TITER GLO). The settings on record: Homo sapiens, HCT-116, 168 h; HCT116, Colorectal Cancer, seven days. The format is cell-based. Here is the method: as §1
In the next assay the test system is HCC1806. In words: Cell Proliferation Assay (CELL TITER GLO). The settings on record: Homo sapiens, 168 h; HCC1806, Breast Cancer, seven days. The format is cell-based. Here is the method: as §1
For another assay, the system named is MCF7. Description: Cell Proliferation Assay (CELL TITER GLO). The class given is cell-based. The settings on record: Homo sapiens, 168 h; MCF7, Breast Cancer, seven days. Here is the method:
as §1

The test system of a further assay is NCI-H446. Description: Cell Proliferation Assay (CELL TITER GLO). The format is cell-based. The settings on record: Homo sapiens, 168 h; NCI-H446, Lung Cancer, seven days. The procedure:
as §1

Structures are written as SMILES. pIC50: −log10 of the molar value.

Among the data in US20210032257A1, “(E)-1-(4-(DIMETHYLAMINO)BUT-2-ENOYL)PYRROLIDIN-3-YL 4-((3-ISOPROPYL-5-METHYLPYRAZOLO[1,5-A]PYRIMIDIN-7-YL)AMINO)PIPERIDINE-1-CARBOXYLATE FOR INHIBITING CDK7” (Eli Lilly and Company, priority 2017, published 2021) are IC50 values, retold here.

What is called pIC50 is the IC50 on a negative log10 scale, so that one unit is a factor of ten. For `Cc1cc(NC2CCN(C(=O)O[C@H]3CCN(C(=O)/C=C/CN(C)C)C3)CC2)n2ncc(C(C)C)c2n1` [Example 1, [(3S)-1-[(E)-4-(dimethylamino)but-2-enoyl]pyrrolidin-3-yl] 4-[(3-isopropyl-5-methyl-pyrazolo[1,5-a]pyrimidin-7-yl)amino]piperidine-1-carboxylate], the pIC50 in assay [1] was below 5.70; in the assay with NCI-H460, 7.32; in the assay with SNU-16, 7.64; in the assay with A2780, 7.58; in the assay with HCT116, 7.34; with HCC1806, 7.59. For the same compound, the negative logarithm of the IC50 (pIC50) with MCF7 was 7.49; in the assay on NCI-H446 it was 7.85.
